Where two headings read alike, the source gives them in different places.

The values below come from patent publication US20170115265A1, “Use of Visibly Detectable Compounds as Performance Reference Compounds in Passive Sampling Devices” (Geosyntec Consultants, Inc., priority 2015, published 2017).

The conditions of data set [1]: cited from earlier work; for Log KOW value (may be estimate): common dyes, Table 1, values said to be known; for Log KOW: source not stated; for Log KOW value: drugs, reported by Scheytt et al. 2005.
The nature of data set [2]: Example 7: elimination of dye PRCs from PE PSDs in jars of sediment and water agitated 14 days on a shaker table. In kind it is physicochemical. The settings on record: PE PSD. An excerpt:
Two additional 3×3 cm PSDs were spiked with 10 unlabeled PCB PRCs that are not visibly detectable, but are routinely used as PRCs in passive sampling applications.
The five jars containing the PSDs were closed and agitated for a period of 14 days on a shaker table. The other four dye-spiked PSDs and PCB-spiked PSD were held in storage. Following retrieval of the PSDs deployed in the sediment after 14 days, the PSDs were extracted in solvent (e.g., 50-mL mixture of hexane and methylene chloride). […] Concentrations of these dyes in the PE could be calculated assuming a known mass of each PE piece. The solvent extracts of the PSDs that had been exposed to the sediment for 14 days and held in storage for 14 days would be measured for PCBs using high-resolution gas chromatography/high-resolution mass spectrometry with an approximate 30- to 60-minute analysis time per sample.
(§1) A linear regression model would then be estimated using the Log10 ke values as the dependent variable (y axis) and the Log10 KPE values as the independent variable […].

The nature of data set [3]: Example 2: hypothetical 28-day sediment deployment of PE PSD spiked with three dye PRCs. In kind it is physicochemical. Particulars: for Log10-transformed ke (hypothetical) / ke (hypothetical): PE PSD 28 days in sediment.
Excerpt: Two PSD could be created (each consisting of a 4×10 cm piece of PE).
The KPE values of the 3 dyes are dissimilar to that of PCB-60, yet they may be used to provide a ke for PCB-60 according to the following approach. One PSD containing the three above dyes would be deployed into sediment for a period of 28 days, and the other PSD containing the three above dyes would be held in storage. Following retrieval of the PSD deployed in the sediment, both PSDs would be extracted in solvent (e.g., 50-mL mixture of hexane and methylene chloride). […] Concentrations of these dyes in the PE could be calculated assuming a known mass of each PE piece. The solvent extract of the PSD that had been exposed to the sediment for 28 days would be measured for PCBs using high-resolution gas chromatography/high-resolution mass spectrometry with an approximate 30- to 60-minute analysis time per sample. Via this analysis, the concentration of PCB-60 in the PSD that had been exposed to the sediment for 28 days could be determined.
as §1
FIG. 2 is a line graph showing this equation plotted as Log10 Ke (day-1) versus Log10 KPE (liters/kg/PE). […] By using the equation from the plot shown in FIG. 2, the predicted ke value of PCB-60 could be interpolated from its known KPE value.

The nature of data set [4]: Example 1: elimination of PRCs from PE passive sampling devices deployed 14 days in marine aquatic sediment. The settings on record: PE PSD at Station 6, marine sediment. In kind it is physicochemical. An excerpt: Twenty PSDs were created (each consisting of a 4×10 cm piece of PE). Ten of the PSDs were spiked with PCB-36 (which is not visibly detectable) and ten of the PSDs were spiked with Sudan III, a visibly detectable PRC within the scope of the present disclosure. The 20 spiked PSDs then were inserted in the top 10 cm of aquatic sediment at a marine (ocean) site by scuba divers at ten locations within a half-acre area. At each of the 10 locations, one PSD containing PCB-36 and one PSD containing Sudan III were deployed.
After 14 days, the PSDs were collected by divers, brought to the surface, placed in a shipping container, and sent to a laboratory, where they were wiped with moistened tissues, placed in small vials, and extracted with solvent. […] The 13 solvents (from extraction of 10 exposed PSDs and 3 trip blanks PSDs) into which the PCB-36-spiked PSDs were extracted were then measured for PCBs using high-resolution gas chromatography/high-resolution mass spectrometry with an approximate 30- to 60-minute analysis time per sample. Via this analysis, the concentrations of PCB-36 in the 13 PCB-36-spiked PSDs were determined. […] Via this analysis, the concentration of Sudan III in the 13 Sudan III-spiked PSDs was determined. […]

Data set [5] can be described thus: Example 8: Sudan III elimination from PE PSDs, marine sediment versus agitated sediment, 14 days. It is filed as physicochemical. How it is done:
Six 3×3 cm PSDs and fourteen 4×10 cm PSDs were spiked with Sudan III dye. Eleven of the larger (4×10 cm) PSDs were inserted in the top 10 cm of aquatic sediment at a marine (ocean) site by scuba divers at ten locations within a half-acre area. Three of the smaller (3×3 cm) PSDs were deployed into […] 8-oz jars containing approximately 100 g (wet weight) sediment and 150 mL water. The three jars containing the PSDs were closed and agitated for a period of 14 days on a shaker table. […] The solvents from the PSDs were analyzed on a benchtop UV/Vis spectrophotometer at wavelengths of 465 nm (to indicate the concentration of Sudan III in the solvent). Concentrations of these dyes in the PE could be calculated assuming a known mass of each PE piece.
Using the average concentrations of Sudan III in the unexposed PSDs (to represent the t=0 concentration) and the concentration of Sudan III in the PSDs that had been exposed to the marine sediment and agitated sediment for 14 days (the time t concentrations), one could estimate the ke values using the equation provided in Example 1. […] Thus, the dye approach can be used to quantify the increase in sampling rates for various methods (i.e., unagitated deployments, various types of agitated deployments), and provides a low cost and efficient method compared to other PRCs.

Data set [6] is described as follows: polyethylene-water partition coefficient (KPE) of PCBs according to Smedes et al. It is filed as physicochemical. Particulars: Log10 of the cited KPE. An excerpt: Assuming the KPE values are roughly similar (i.e., within 10%) between the dye and the analyte of interest, the dye could also be an appropriate PRC to use for other compounds. For example, given that KPE Sudan III KPE is 390,000 L/kg, Sudan III could be used as a PRC for compounds with KPE values from 350,000 L/kg to 430,000 L/kg.

`O=C1/C(=C2\Nc3ccccc3C2=O)Nc2ccccc21` [Indigo dye]: the “Log KOW value (may be estimate)” value in data set [1] is recorded as 3.7.
As for `CC1(C)Nc2cccc3c(N=Nc4ccc(N=Nc5ccccc5)c5ccccc45)ccc(c23)N1` [Sudan Black B], in data set [1] (dye compounds of Table 4), the “Log KOW” value was 8.8. Moreover, in data set [2], the Log10-transformed ke is -3.1 log10(day^−1) and the ke turned out to be 0.00072 day⁻¹.
As for `Cc1ccc(Nc2ccc(O)c3c2C(=O)c2ccccc2C3=O)cc1` [Solvent Violet 13], the “Log KOW” value in data set [1] (dye compounds of Table 2) is 6.2. Further, the “Log KOW” value in data set [1] (dye compounds of Table 4) is 6.2. The molecule also returned a ke in data set [2] of 0.16 day⁻¹. In data set [3], the “Log10-transformed ke (hypothetical)” value is reported as -1.7 day^−1 and the “ke (hypothetical)” value turned out to be 0.02 day⁻¹.
For `Oc1ccc2ccccc2c1N=Nc1ccc(N=Nc2ccccc2)cc1` [Sudan III], the “Log KOW” value in data set [1] (dye compounds of Table 2) and in data set [1] (dye compounds of Table 4) was 5.7 each time. In data set [4], this molecule returned an elimination rate ke of 0.032 day⁻¹. The ke in data set [2] was found to be 0.046 day⁻¹. In addition, the “Log10-transformed ke (hypothetical)” value in data set [3] is listed as −1.4 day^−1. Further, the “ke (hypothetical)” value in data set [3] was found to be 0.04 day⁻¹. The average ke in data set [5] (agitated sediment (shaker table)) was determined as 0.094 day⁻¹; in data set [5] (marine sediment (unagitated)), 0.030 day⁻¹.
With `Clc1ccc(-c2ccc(Cl)c(Cl)c2Cl)cc1` [PCB-60], the “estimated hypothetical ke interpolated from KPE” value in data set [3] (from regression of FIG. 2) was 0.028 day⁻¹. For the same molecule, the “Log10 KPE” value in data set [6] turned out to be 5.9 L/kg PE.
Regarding `CC(C)Cc1ccc(C(C)C(=O)O)cc1` (centres unmarked) [Ibuprofen], the “Log KOW value” in data set [1] is 2.48.
Take `Cc1c(C(C)C)c(=O)n(-c2ccccc2)n1C` [Propyphenazone]: the “Log KOW value” in data set [1] is 2.02.
As for `O=C(O)Cc1ccccc1Nc1c(Cl)cccc1Cl` [Diclofenac], in data set [1], the “Log KOW value” is 1.9.
`COc1ccc(OC)c(N=Nc2c(O)ccc3ccccc23)c1` [Citrus Red 2]: in data set [1], the “Log KOW value (may be estimate)” value is listed as 5.67.
In the case of `CCN(CC)c1ccc2c(-c3ccccc3C(=O)O)c3ccc(=[N+](CC)CC)cc-3oc2c1.[Cl-]` [Rhodamine B], the “Log KOW” value in data set [1] (dye compounds of Table 2) is reported as 1.8.
In turn, `Clc1cccc(-c2cc(Cl)cc(Cl)c2)c1` [PCB-36] registered an elimination rate ke in data set [4] of 0.043 day⁻¹.
In the case of `CC(C)(Oc1ccc(Cl)cc1)C(=O)O` [Clofibric acid], in data set [1], the “Log KOW value” is on record as 2.88.
`Oc1ccc(N=Nc2ccccc2)c(O)c1` [Sudan Orange G]: the “Log KOW” value in data set [1] (dye compounds of Table 2) is given as 3.9. The “Log KOW” value in data set [1] (dye compounds of Table 4) is recorded as 3.9. Moreover, the ke in data set [2] turned out to be 0.41 day⁻¹. Moreover, in data set [3], the “Log10-transformed ke (hypothetical)” value is −0.1 day^−1 and the “ke (hypothetical)” value worked out at 0.8 day⁻¹.
Consider `Oc1ccc2ccccc2c1N=Nc1ccccc1` [Sudan I], for which the “Log KOW” value in data set [1] (dye compounds of Table 2) is given as 5.5.
